In patent US9254331B2, “Sulforaphane stabilization” (AURIGA INTERNATIONAL, priority 2010, dated 2016):

Experiments:
[1] = allyl isothiocyanate sample treated one hour in boiling water, cited from earlier work
[2] = Protocol: The stability of sulforaphane was investigated in the following way: a 1% sulforaphane solution is prepared in different media to be tested. The preparation, maintained in a closed container is then thermostated at 25° C., 37° C. or 40° C. Kinetic tracking is carried out by assaying the residual sulforaphane.
The HPLC method used is the following:
Column: Discovery C18 (15 cm×4.8 mm×5 μm)
Mobile Phase: isocratic CH3CN/H2O (50/50)
Injection (10 μL) after dilution of the parent solution in the mobile phase in order to obtain a sulforaphane concentration of 1 mg/mL.
External standard: naphthalene.
1% of sulforaphane were placed per mL of solution containing diphospholipides such as for example Phosal®. The preparation, maintained in a closed container is then thermostated at 40° C. Kinetic tracking is carried out by assaying the residual sulforaphane:
1% m/m sulforaphane solutions were prepared in each anhydrous ester mentioned above. Kinetic tracking of the degradation was then carried out at 40° C. by using naphthalene as an external standard.
Kinetic tracking of the degradation was then carried out at 40° C. by using naphthalene, as an external standard.

[3] = Stabilization of isothiocyanates with ascorbic acid upon storage; conditions: similar study with sulforaphane
Source text: Further, it is also known how to stabilize allyl isothiocyanate with ascorbic acid.

Remark: listed apart in the source
[4] = NMR
[5] = not given; remark: listed apart in the source
[6] = mixture of isoamyl salicylate, capric/caprylic triglyceride and silicone derivative, 2% sulforaphane
[7] = cited from earlier work
[8] = after seven months, cited from earlier work
[9] = closed flask, non-inertized, exposed to light

## C=CC1SC=CCS1 (centres unmarked) [2-vinyl-4-1,3-dithiin]
[1]
  Concentration at pH 2.7: Traces
  Concentration at pH 7.0: Traces
  Concentration at pH 9.0: Traces

## C1=CSSC1 [3H-1,2-dithiolene]
[1]
  Concentration at pH 2.7: 0.13 mg/g
  Concentration at pH 7.0: 0.17 mg/g
  Concentration at pH 9.0: 0.19 mg/g

## C1=CSSSC1 [4H-1,2,3-trithiin]
[1]
  Concentration at pH 2.7: Traces
  Concentration at pH 7.0: Traces
  Concentration at pH 9.0: Traces

## CC1CSSSS1 (centres unmarked) [5-methyl-1,2,3,4-tetrathiane]
[1]
  Concentration at pH 2.7: 0.01 mg/g
  Concentration at pH 7.0: 0.02 mg/g
  Concentration at pH 9.0: 0.03 mg/g

## C=CCN=C=S [allyl isothiocyanate, reference compound]
[1]
  Concentration at pH 2.7: 379.06 mg/g
  Concentration at pH 7.0: 290.27 mg/g
  Concentration at pH 9.0: 270.46 mg/g

## C=CCSC#N [allyl thiocyanate]
[1]
  Concentration at pH 2.7: 9.21 mg/g
  Concentration at pH 7.0: 13.84 mg/g
  Concentration at pH 9.0: 12.32 mg/g

## C=CCSSCC=C [diallyl disulfide]
[1]
  Concentration at pH 2.7: 8.09 mg/g
  Concentration at pH 7.0: 11.47 mg/g
  Concentration at pH 9.0: 12.71 mg/g

## C=CCSCC=C [diallyl sulfide]
[1]
  Concentration at pH 2.7: 13.09 mg/g
  Concentration at pH 7.0: 22.16 mg/g
  Concentration at pH 9.0: 26.40 mg/g

## C=CCSSSSCC=C [diallyl tetrasulfide]
[1]
  Concentration at pH 2.7: Traces
  Concentration at pH 7.0: Traces
  Concentration at pH 9.0: Traces

## C=CCSSSCC=C [diallyl trisulfide]
[1]
  Concentration at pH 2.7: 10.31 mg/g
  Concentration at pH 7.0: 13.63 mg/g
  Concentration at pH 9.0: 14.11 mg/g

## C[S+]([O-])CCCCN=C=S (centres unmarked) [sulforaphane]
[2]; 1% (m/m) in 2-octyl-dodecanol (Nerol 20) and dimethyl isosorbide
  degradation in 2-octyl-dodecanol and dimethyl isosorbide: degraded over time
[2]; 1% (m/m) in jojoba, argan and eglantine rose oils
  degradation in vegetable oils: too substantial to allow commercial use
[2]; 1% (m/m) in triethylpropane triostearate and coco caprylate-caprate CCC, 40° C.
  degradation in isostearate and coco caprylate-caprate: negligible
[2]; 1% in solution containing phospholipids (Phosal), 40° C., in less than 3 days
  degradation in phospholipid medium: more than 40%
[2]; 1% m/m in ester 610, methyl salicylate, isoamyl salicylate, 40° C.
  degradation in anhydrous esters: negligible
[2]; 1% solution in water, 40° C., after 2 days
  loss of sulforaphane: 10%
[2]; 1% solution in water, 40° C., after 10 days
  remaining fraction of initial content: 50%
[2]; 2% (m/m) in isoamyl salicylate, capric/caprylic triglyceride and silicone derivative, 6 months at 40° C.
  degradation in cosmetic formulation: 3-5%
[2]; 2% sulforaphane, 2 anhydrous esters and methylpolysiloxane A or B
  degradation in galenic formulation: no degradation is observed
[2]; antioxidant hydro-alcoholic medium, 25° C.
  time after which residual sulforaphane begins to fall: 1 days
[2]; antioxidant hydro-alcoholic medium, 37° C., in less than 7 days
  remaining fraction of initial amount: no more than 50%
[2]; ethanol, 40° C., early days, coupling compound with ethanol formed
  degradation trend in ethanol: very dearly marked
[2]; tocopheryl acetate
  degradation in tocopheryl acetate: no significant degradation
[3]
  stabilization of sulforaphane by ascorbic acid: not able to stabilize
Thermostated injector at 250° C.
  product degraded into 3-butenylisothiocyanate on injection in gas chromatography: 80%
Without passing through the injector
  degradation when injected directly onto the column: no degradation peak is observed
[4]; 24 hour reflux
  degradation on heating with reflux in chloroform: did not either show any degradation
[4]; [9]
  stability in solution in DMSO: stable for at least one week
  stability in solution in chloroform: stable for at least one week
[5]; argan oil
  solubility in argan oil: ~2%
[5]; eglantine rose oil
  solubility in eglantine rose oil: ~3.5%
[5]; ester 610, methyl salicylate, isoamyl salicylate (Example 1)
  solubility in anhydrous esters: > 6 % (m/m)
[5]; jojoba oil
  solubility in jojoba oil: about 0.5 % (m/m)
[5]; mixture of isoamyl salicylate, capric/caprylic triglyceride and silicone derivative
  solubilization in cosmetic formulation: 2%
[5]; triethylpropane triostearate, coco caprylate-caprate (Example 4)
  solubility in pure anhydrous esters: > 6 % (m/m)
[6]
  penetration into the skin: good penetration into the skin
[7]; 50% of acacia gum, 40° C./75% humidity versus 25° C./60% humidity
  degradation under accelerated versus normal ageing conditions: twice more significant
[7]; 70% gum arabic, 25° C., first week, then relatively stable
  degradation with 70% gum arabic at 25° C.: slight degradation
[7]; 70% gum arabic, after one month, 40° C.
  degradation with 70% gum arabic: ≤ 30%
[7]; sample having 50% of acacia gum
  stabilization with 50% of acacia gum: does not exhibit any particular stabilization
[8]; less suitable, not very stabilizing cyclodextrins
  degradation with less suitable cyclodextrins: up to 50%
[8]; α-cyclodextrins
  degradation with α-cyclodextrins: less than 10%
